# Measurements: ChEMBL document CHEMBL5055685, “Discovery of the First Potent IDO1/IDO2 Dual Inhibitors: A Promising Strategy for Cancer Immunotherapy” (J Med Chem, 2021)
# Activity calls are given as the source filed them. The rule behind the calls is not given here.
# Key:
# [1] = target: Tyrosine-protein kinase Fyn (Homo sapiens) (UniProt P06241); test: Inhibition of FYN (unknown origin) at 1 uM
# [2] = target: Serine/threonine-protein kinase VRK1 (Homo sapiens) (UniProt Q99986); test: Inhibition of VRK1 (unknown origin) at 1 uM
# [3] = AUC (0 to t) in Sprague-Dawley rat at 50 mg/kg, po; type: ADME, organism-based; design: dose 50 mg/kg, route po; conditions: in vivo
# [4] = target: Dual specificity protein kinase CLK2 (Homo sapiens) (UniProt P49760); test: Inhibition of CLK2 (unknown origin) at 1 uM
# [5] = target: Dual specificity protein kinase CLK1 (Homo sapiens) (UniProt P49759); test: Inhibition of CLK1 (unknown origin) at 1 uM
# Sequence of Dual specificity protein kinase CLK1 (Homo sapiens) (P49759 whole entry, looked up): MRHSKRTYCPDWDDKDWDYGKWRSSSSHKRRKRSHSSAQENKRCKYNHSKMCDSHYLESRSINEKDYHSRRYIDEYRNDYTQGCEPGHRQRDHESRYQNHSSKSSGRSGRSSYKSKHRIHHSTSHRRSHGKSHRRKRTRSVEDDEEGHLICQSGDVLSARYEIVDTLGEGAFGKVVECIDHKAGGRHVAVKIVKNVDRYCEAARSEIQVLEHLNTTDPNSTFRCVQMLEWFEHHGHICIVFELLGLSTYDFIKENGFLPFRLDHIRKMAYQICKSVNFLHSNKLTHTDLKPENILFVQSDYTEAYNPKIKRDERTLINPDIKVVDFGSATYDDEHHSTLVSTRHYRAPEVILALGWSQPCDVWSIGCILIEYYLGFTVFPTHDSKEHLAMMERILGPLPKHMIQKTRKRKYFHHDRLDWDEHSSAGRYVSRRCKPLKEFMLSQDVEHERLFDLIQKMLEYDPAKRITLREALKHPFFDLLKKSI
# [6] = Protein binding in human plasma assessed as fraction unbound by equilibrium dialysis; type: ADME, cell-free
# [7] = target: Dual specificity tyrosine-phosphorylation-regulated kinase 1B (Homo sapiens) (UniProt Q9Y463); test: Inhibition of DYRK1B (unknown origin) at 1 uM
# [8] = target: STE20-like serine/threonine-protein kinase (Homo sapiens) (UniProt Q9H2G2); test: Inhibition of SLK (unknown origin) at 1 uM
# [9] = Half life in human liver microsomes; type: ADME, Microsome
# [10] = target: Serine/threonine-protein kinase pim-3 (Homo sapiens) (UniProt Q86V86); test: Inhibition of PIM3 (unknown origin) at 1 uM
# [11] = target: Fibroblast growth factor receptor 4 (Homo sapiens) (UniProt P22455); test: Inhibition of FGFR4 (unknown origin) at 1 uM
# [12] = target: Mitogen-activated protein kinase kinase kinase kinase 3 (Homo sapiens) (UniProt Q8IVH8); test: Inhibition of GLK (unknown origin) at 1 uM
# [13] = target: Inhibitor of nuclear factor kappa-B kinase subunit alpha (Homo sapiens) (UniProt O15111); test: Inhibition of IKKalpha (unknown origin) at 1 uM
# [14] = target: Ephrin type-A receptor 2 (Homo sapiens) (UniProt P29317); test: Inhibition of EPHA2 (unknown origin) at 1 uM
# [15] = target: Serine/threonine-protein kinase Chk2 (Homo sapiens) (UniProt O96017); test: Inhibition of CHK2 (unknown origin) at 1 uM
# [16] = target: Serine/threonine-protein kinase LATS2 (Homo sapiens) (UniProt Q9NRM7); test: Inhibition of LATS2 (unknown origin) at 1 uM
# [17] = target: Receptor-interacting serine/threonine-protein kinase 3 (Homo sapiens) (UniProt Q9Y572); test: Inhibition of RIPK3 (unknown origin) at 1 uM
# [18] = target: 3-phosphoinositide-dependent protein kinase 1 (Homo sapiens) (UniProt O15530); test: Inhibition of PDK1 (unknown origin) at 1 uM
# [19] = target: Serine/threonine-protein kinase PLK4 (Homo sapiens) (UniProt O00444); test: Inhibition of PLK4 (unknown origin) at 1 uM
# [20] = target: Muscle, skeletal receptor tyrosine-protein kinase (Homo sapiens) (UniProt O15146); test: Inhibition of MUSK (unknown origin) at 1 uM
# [21] = target: Activated CDC42 kinase 1 (Homo sapiens) (UniProt Q07912); test: Inhibition of ACK1 (unknown origin) at 1 uM
# [22] = target: Ephrin type-A receptor 4 (Homo sapiens) (UniProt P54764); test: Inhibition of EPHA4 (unknown origin) at 1 uM
# Sequence of Ephrin type-A receptor 4 (Homo sapiens) (P54764 whole entry): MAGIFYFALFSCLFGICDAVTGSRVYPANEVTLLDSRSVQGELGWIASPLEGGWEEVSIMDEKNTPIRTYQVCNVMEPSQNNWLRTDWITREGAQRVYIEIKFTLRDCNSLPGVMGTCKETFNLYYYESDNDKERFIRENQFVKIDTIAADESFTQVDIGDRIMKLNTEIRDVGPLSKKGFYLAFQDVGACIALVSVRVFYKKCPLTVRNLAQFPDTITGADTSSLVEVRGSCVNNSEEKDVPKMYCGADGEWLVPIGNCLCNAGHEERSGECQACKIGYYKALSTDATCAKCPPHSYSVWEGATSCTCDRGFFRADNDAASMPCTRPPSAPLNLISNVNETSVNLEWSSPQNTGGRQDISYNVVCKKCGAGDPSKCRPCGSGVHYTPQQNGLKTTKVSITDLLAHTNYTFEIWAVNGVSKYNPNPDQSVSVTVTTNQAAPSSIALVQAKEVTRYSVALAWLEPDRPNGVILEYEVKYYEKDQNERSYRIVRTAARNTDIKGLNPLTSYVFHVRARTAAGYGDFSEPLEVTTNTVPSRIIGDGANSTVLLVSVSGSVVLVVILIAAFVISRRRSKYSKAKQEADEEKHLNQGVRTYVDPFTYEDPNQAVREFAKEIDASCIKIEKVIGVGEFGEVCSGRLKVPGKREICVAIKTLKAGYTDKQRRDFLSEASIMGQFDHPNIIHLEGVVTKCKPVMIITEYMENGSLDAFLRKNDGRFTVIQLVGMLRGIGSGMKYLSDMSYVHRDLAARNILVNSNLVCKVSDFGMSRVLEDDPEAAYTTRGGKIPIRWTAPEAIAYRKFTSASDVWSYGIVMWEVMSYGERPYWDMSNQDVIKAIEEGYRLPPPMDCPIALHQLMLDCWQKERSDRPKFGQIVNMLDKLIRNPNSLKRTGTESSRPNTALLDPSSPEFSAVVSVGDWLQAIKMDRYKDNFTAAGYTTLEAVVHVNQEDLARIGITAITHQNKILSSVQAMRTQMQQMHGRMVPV
# [23] = target: Cyclin-dependent kinase 14/Cyclin-Y (Homo sapiens) (UniProt O94921+Q8ND76); test: Inhibition of CDK14/cyclin-Y (unknown origin) at 1 uM; type: protein-complex assay
# [24] = target: Ephrin type-A receptor 8 (Homo sapiens) (UniProt P29322); test: Inhibition of EPHA8 (unknown origin) at 1 uM
# [25] = target: Mitogen-activated protein kinase 9 (Homo sapiens) (UniProt P45984); test: Inhibition of JNK2 (unknown origin) at 1 uM
# Sequence of Mitogen-activated protein kinase 9 (Homo sapiens) (P45984 whole entry, looked up): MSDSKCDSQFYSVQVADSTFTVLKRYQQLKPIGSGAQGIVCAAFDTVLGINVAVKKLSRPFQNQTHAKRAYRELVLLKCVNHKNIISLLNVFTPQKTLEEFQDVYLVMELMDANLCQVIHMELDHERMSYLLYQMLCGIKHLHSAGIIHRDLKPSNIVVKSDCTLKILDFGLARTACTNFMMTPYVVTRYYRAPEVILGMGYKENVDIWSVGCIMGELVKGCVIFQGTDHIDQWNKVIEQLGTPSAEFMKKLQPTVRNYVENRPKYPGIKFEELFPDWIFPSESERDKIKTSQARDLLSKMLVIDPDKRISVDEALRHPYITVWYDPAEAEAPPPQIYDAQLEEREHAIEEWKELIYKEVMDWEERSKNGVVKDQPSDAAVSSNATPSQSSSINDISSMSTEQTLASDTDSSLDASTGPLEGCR
# [26] = test system: CT26; test: Cytotoxicity against mouse CT26 cells assessed as reduction in cell viability by CCK8 assay; type: functional, cell-based
# [27] = target: Homeodomain-interacting protein kinase 4 (Homo sapiens) (UniProt Q8NE63); test: Inhibition of HIPK4 (unknown origin) at 1 uM
# [28] = target: Mitogen-activated protein kinase kinase kinase 8 (Homo sapiens) (UniProt P41279); test: Inhibition of COT1 (unknown origin) at 1 uM
# [29] = target: Dual specificity tyrosine-phosphorylation-regulated kinase 2 (Homo sapiens) (UniProt Q92630); test: Inhibition of DYRK2 (unknown origin) at 1 uM
# Sequence of Dual specificity tyrosine-phosphorylation-regulated kinase 2 (Homo sapiens) (Q92630 whole entry): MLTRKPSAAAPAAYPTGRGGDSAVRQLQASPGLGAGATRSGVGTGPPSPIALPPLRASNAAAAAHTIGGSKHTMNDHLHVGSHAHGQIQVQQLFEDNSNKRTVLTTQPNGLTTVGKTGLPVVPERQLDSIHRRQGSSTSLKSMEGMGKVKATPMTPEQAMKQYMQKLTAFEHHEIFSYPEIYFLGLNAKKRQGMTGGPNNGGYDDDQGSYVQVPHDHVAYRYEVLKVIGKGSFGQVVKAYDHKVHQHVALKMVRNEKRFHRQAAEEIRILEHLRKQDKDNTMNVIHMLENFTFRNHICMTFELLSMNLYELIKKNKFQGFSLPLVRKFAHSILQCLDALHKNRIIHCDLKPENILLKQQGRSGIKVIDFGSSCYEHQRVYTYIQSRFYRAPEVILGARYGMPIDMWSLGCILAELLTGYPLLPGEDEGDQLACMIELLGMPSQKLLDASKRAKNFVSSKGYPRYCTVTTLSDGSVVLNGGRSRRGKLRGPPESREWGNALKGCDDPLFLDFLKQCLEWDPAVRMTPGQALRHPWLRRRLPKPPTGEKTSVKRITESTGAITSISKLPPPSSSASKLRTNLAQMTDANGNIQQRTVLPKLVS
# [30] = target: Serine/threonine-protein kinase WNK3 (Homo sapiens) (UniProt Q9BYP7); test: Inhibition of WNK3 (unknown origin) at 1 uM
# [31] = target: Calcium/calmodulin-dependent protein kinase type II subunit delta (Homo sapiens) (UniProt Q13557); test: Inhibition of CAMK2D (unknown origin) at 1 uM
# [32] = target: Mitogen-activated protein kinase kinase kinase kinase 4 (Homo sapiens) (UniProt O95819); test: Inhibition of HGK (unknown origin) at 1 uM
# [33] = target: Serine/threonine-protein kinase TAO2 (Homo sapiens) (UniProt Q9UL54); test: Inhibition of TAOK2 (unknown origin) at 1 uM
# Sequence of Serine/threonine-protein kinase TAO2 (Homo sapiens) (Q9UL54 whole entry): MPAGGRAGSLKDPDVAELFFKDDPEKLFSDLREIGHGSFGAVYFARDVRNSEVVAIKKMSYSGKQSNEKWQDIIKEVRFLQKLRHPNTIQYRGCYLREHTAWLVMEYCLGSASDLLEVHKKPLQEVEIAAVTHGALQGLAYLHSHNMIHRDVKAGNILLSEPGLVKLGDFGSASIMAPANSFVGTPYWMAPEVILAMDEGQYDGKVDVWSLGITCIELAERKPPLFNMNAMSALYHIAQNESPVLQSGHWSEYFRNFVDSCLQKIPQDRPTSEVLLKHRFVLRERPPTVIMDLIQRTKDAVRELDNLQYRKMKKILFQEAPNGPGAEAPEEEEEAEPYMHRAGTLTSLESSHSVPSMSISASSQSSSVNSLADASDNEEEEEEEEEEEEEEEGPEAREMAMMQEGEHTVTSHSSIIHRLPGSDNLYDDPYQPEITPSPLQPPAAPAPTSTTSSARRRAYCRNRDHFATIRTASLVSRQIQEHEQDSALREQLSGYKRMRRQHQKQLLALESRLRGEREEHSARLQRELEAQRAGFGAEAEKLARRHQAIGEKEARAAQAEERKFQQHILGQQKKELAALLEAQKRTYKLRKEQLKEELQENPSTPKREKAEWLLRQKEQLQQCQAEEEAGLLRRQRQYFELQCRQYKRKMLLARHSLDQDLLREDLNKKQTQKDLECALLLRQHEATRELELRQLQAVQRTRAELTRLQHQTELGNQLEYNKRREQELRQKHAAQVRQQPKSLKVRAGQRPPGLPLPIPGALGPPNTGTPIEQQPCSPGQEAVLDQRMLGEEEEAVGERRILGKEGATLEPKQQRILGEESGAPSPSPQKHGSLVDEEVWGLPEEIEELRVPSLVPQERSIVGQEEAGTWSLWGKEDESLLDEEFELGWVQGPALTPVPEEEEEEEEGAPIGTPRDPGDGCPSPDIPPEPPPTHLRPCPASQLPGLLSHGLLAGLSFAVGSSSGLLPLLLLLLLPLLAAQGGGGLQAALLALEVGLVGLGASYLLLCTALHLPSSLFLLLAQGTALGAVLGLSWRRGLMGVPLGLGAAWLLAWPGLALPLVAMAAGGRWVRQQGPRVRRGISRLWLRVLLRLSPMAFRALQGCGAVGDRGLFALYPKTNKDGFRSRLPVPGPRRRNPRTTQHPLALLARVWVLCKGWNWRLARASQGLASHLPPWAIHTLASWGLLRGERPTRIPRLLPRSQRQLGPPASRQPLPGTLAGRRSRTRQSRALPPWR
# [34] = target: Serine/threonine-protein kinase 4 (Homo sapiens) (UniProt Q13043); test: Inhibition of MST1 (unknown origin) at 1 uM
# Sequence of Serine/threonine-protein kinase 4 (Homo sapiens) (Q13043 whole entry): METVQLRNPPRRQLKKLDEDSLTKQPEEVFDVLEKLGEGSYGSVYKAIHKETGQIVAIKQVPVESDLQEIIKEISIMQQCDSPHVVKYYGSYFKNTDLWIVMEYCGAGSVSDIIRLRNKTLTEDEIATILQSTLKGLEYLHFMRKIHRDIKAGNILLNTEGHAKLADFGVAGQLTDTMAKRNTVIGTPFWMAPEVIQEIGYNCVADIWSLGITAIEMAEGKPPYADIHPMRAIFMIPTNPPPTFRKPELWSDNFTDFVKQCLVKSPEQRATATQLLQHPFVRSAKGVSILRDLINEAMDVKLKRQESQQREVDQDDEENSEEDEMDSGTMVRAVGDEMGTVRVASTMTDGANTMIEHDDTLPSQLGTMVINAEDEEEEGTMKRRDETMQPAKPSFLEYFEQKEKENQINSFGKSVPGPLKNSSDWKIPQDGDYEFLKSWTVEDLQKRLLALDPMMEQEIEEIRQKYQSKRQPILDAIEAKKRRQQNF
# [35] = target: Protein kinase C beta type (Homo sapiens) (UniProt P05771); test: Inhibition of PKCb1 (unknown origin) at 1 uM
# [36] = target: Serine/threonine-protein kinase Nek8 (Homo sapiens) (UniProt Q86SG6); test: Inhibition of NEK8 (unknown origin) at 1 uM
# Sequence of Serine/threonine-protein kinase Nek8 (Homo sapiens) (Q86SG6 whole entry): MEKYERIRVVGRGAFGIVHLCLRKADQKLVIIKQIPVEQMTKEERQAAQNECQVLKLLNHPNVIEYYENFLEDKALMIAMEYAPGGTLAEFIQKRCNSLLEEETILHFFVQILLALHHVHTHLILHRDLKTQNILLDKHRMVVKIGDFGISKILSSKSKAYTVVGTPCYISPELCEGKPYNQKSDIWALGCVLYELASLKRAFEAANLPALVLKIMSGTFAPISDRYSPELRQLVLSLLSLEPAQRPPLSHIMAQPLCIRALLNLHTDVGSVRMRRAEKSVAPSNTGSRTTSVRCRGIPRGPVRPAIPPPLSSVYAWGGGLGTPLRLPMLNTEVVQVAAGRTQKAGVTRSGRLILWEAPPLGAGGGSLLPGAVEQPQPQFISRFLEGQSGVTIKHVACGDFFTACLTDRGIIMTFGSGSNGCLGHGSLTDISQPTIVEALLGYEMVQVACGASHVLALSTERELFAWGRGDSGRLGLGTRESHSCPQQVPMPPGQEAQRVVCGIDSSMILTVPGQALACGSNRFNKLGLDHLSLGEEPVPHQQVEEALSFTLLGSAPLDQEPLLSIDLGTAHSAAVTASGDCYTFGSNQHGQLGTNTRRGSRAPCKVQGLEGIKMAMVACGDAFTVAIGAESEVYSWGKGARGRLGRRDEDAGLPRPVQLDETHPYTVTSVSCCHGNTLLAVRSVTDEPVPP
# [37] = target: Tyrosine-protein kinase JAK3 (Homo sapiens) (UniProt P52333); test: Inhibition of JAK3 (unknown origin) at 1 uM
# [38] = target: Homeodomain-interacting protein kinase 2 (Homo sapiens) (UniProt Q9H2X6); test: Inhibition of HIPK2 (unknown origin) at 1 uM
# [39] = Half life in monkey liver microsomes; type: ADME, Macaca mulatta, Microsome; conditions: rhesus monkey
# [40] = target: Dual specificity testis-specific protein kinase 2 (Homo sapiens) (UniProt Q96S53); test: Inhibition of TESK2 (unknown origin) at 1 uM
# [41] = test system: HeLa; test: Cytotoxicity against human HeLa cells assessed as reduction in cell viability at 1 to 10 uM by CCK8 assay; type: functional, cell-based; conditions: dose 1-10 µM
# [42] = target: Serine/threonine-protein kinase Nek3 (Homo sapiens) (UniProt P51956); test: Inhibition of NEK3 (unknown origin) at 1 uM
# [43] = target: Dual specificity mitogen-activated protein kinase kinase 6 (Homo sapiens) (UniProt P52564); test: Inhibition of MKK6 (unknown origin) at 1 uM
# [44] = target: Insulin-like growth factor 1 receptor (Homo sapiens) (UniProt P08069); test: Inhibition of IGF1R (unknown origin) at 1 uM
# [45] = target: Serine/threonine-protein kinase Nek6 (Homo sapiens) (UniProt Q9HC98); test: Inhibition of NEK6 (unknown origin) at 1 uM
structure (smiles),measurement,setting,value
OCCOCc1cn(CCNc2nonc2/C(=N/O)Nc2ccc(F)c(Br)c2)nn1,inhibition,[1],inactive
same,inhibition,[2],inactive
same,AUC(0-t),[3],3640 ng·h/mL
same,inhibition,[4],inactive
same,inhibition,[5],inactive
same,fraction unbound,[6],0.0411
same,inhibition,[7],inactive
same,inhibition,[8],inactive
same,half-life,[9],46.1 min
same,inhibition,[10],inactive
same,inhibition,[11],inactive
same,inhibition,[12],inactive
same,inhibition,[13],inactive
same,inhibition,[14],inactive
same,inhibition,[15],inactive
same,inhibition,[16],inactive
same,inhibition,[17],inactive
same,inhibition,[18],inactive
same,inhibition,[19],inactive
same,inhibition,[20],inactive
same,inhibition,[21],inactive
same,inhibition,[22],inactive
same,inhibition,[23],inactive
same,inhibition,[24],inactive
same,inhibition,[25],inactive
same,IC50,[26],62 µM
same,inhibition,[27],inactive
same,inhibition,[28],inactive
same,inhibition,[29],inactive
same,inhibition,[30],inactive
same,inhibition,[31],inactive
same,inhibition,[32],inactive
same,inhibition,[33],inactive
same,inhibition,[34],inactive
same,inhibition,[35],inactive
same,inhibition,[36],inactive
same,inhibition,[37],inactive
same,inhibition,[38],inactive
same,half-life,[39],38.6 min
same,inhibition,[40],inactive
same,Activity,[41],Active
same,inhibition,[42],inactive
same,inhibition,[43],inactive
same,inhibition,[44],inactive
same,inhibition,[45],inactive
